The text below walks through data of patent US8017780B1, “Therapeutic compounds and uses thereof” (Myrexis, Inc., priority 2008, dated 2011).

In the test the target is T1, purified human Hsp90.
T1 construct: purified human Hsp90 (Stressgen, SPP-770)
The test is described as follows: Hsp90 binding assay: displacement of BODIPY-labeled geldanamycin by fluorescence polarization. Conditions: BODIPY-GM 10 nM, purified human Hsp90 30 nM, overnight at room temperature; read-out: GM Displacement From Purified Hsp90 measured by FP. The method, then: The binding of exemplary compounds to purified Hsp90 can be assayed by measuring the displacement of BODIPY-labeled geldanamycin (BODIPY-GM) from purified human Hsp90, using a fluorescence polarization assay adapted from Kim et al. (Journal of Biomolecular Screening […]. Compound dilutions (in 100% DMSO) are added to black-bottom 96-well plates (Greiner; 2% DMSO final), and equal volumes of BODIPY-GM (10 nM final) and purified human Hsp90 (Stressgen, SPP-770; 30 nM final) in assay buffer (20 mM HEPES-KOH pH 7.3, 50 mM KCl, 5 mM MgCl2, 20 mM Na2MoO4, 0.01% NP-40, 0.1 mg/mL bovine gamma globulin [Invitrogen, P2045], 2 mM DTT) are added sequentially to yield a final volume of 50 microliters. Plates are incubated overnight at room temperature. Parallel and perpendicular fluorescence measurements are read (LJL BioSystems Analyst AD plate reader) at excitation/emission wavelengths of 485/530 nm. Background fluorescence (buffer only) is subtracted, and fluorescence polarization (FP) values, expressed in mP units, are calculated from parallel and perpendicular fluorescence readings as follows: FP=(parallel−perpendicular)/(parallel+perpendicular)*1000.
Percent inhibition is calculated by normalizing the FP values to those obtained in parallel reactions containing DMSO and subtracting these normalized values from 100%. Intrinsic compound fluorescence is independently monitored, and FP data points confounded by compound fluorescence are excluded from the analysis.
(Polarisation of emitted light reports the rotation of a fluorescent probe.)
Regarding `Nc1nccc2c1nc(Sc1cc3c(cc1Br)OCO3)n2CCC1CCN(C=O)CC1` [Example 1, 4-(2-[4-Amino-2-[(6-bromo-1,3-benzodioxol-5-yl)sulfanyl]-1H-imidazo[4,5-c]pyridin-1-yl]ethyl)piperidine-1-carbaldehyde], the IC50 came to 5000 nM.

As for `C[C@H](O)C(=O)N1CCC(CCn2c(Sc3cc4c(cc3N(C)C)OCO4)nc3c(N)nccc32)CC1` [Example 10, (2S)-1-[4-(2-{4-Amino-2-[(6-(dimethylamino)-1,3-benzodioxol-5-yl)sulfanyl]-1H-imidazo[4,5-c]pyridin-1-yl}ethyl)piperidin-1-yl]-2-hydroxypropan-1-one], the IC50 was 110 nM.

Consider `Nc1nccc2c1nc(Sc1cc3c(cc1Br)OCO3)n2CCc1ccccc1Cl` [Example 3, 2-[(6-Bromo-1,3-benzodioxol-5-yl)sulfanyl]-1-[2-(2-chlorophenyl)ethyl]-1H-imidazo[4,5-c]pyridin-4-amine], for which the IC50 amounted to 2400 nM.

On to `C[C@H](O)C(=O)N1CCC(CCn2c(Sc3cc4c(cc3Br)OCO4)nc3c(N)nccc32)CC1` [Example 5, (2S)-1-[4-(2-{4-Amino-2-[(6-bromo-1,3-benzodioxol-5-yl)sulfanyl]-1H-imidazo[4,5-c]pyridin-1-yl}ethyl)piperidin-1-yl]-2-hydroxypropan-1-one], for which the IC50 was 1000 nM.

As for `CC(=O)O[C@@H](C)C(=O)N1CCC(CCn2c(Sc3cc4c(cc3N(C)C)OCO4)nc3c(N)nccc32)CC1` [Example 9, (2S)-1-[4-(2-{4-Amino-2-[(6-(dimethylamino)-1,3-benzodioxol-5-yl)sulfanyl]-1H-imidazo[4,5-c]pyridin-1-yl}ethyl)piperidin-1-yl]-1-oxopropan-2-yl acetate], the IC50 was 79 nM. As to `CN(C)c1cc2c(cc1Sc1nc3c(N)nccc3n1CCC1CCN(C=O)CC1)OCO2` [Example 8], the IC50 was 110 nM. The value for `CC(=O)N1CCC(CCn2c(Sc3cc4c(cc3Br)OCO4)nc3c(N)nccc32)CC1` [Example 2, 1-[4-(2-{4-Amino-2-[(6-bromo-1,3-benzodioxol-5-yl)sulfanyl]-1H-imidazo[4,5-c]pyridin-1-yl}ethyl)piperidin-1-yl]ethanone] was 5000 nM.
